Laboratory results published in ChEMBL document CHEMBL3039007, “Structure-based identification of OATP1B1/3 inhibitors” (Mol Pharmacol, 2013).
Residues, ends and D or L forms follow the SMILES beside them.

Key:
[1] = biological target: T1, Solute carrier organic anion transporter family member 1B3 (Homo sapiens, UniProt Q9NPD5); settings: chinese hamster, cho, 10 µM
T1 sequence (Q9NPD5 whole entry): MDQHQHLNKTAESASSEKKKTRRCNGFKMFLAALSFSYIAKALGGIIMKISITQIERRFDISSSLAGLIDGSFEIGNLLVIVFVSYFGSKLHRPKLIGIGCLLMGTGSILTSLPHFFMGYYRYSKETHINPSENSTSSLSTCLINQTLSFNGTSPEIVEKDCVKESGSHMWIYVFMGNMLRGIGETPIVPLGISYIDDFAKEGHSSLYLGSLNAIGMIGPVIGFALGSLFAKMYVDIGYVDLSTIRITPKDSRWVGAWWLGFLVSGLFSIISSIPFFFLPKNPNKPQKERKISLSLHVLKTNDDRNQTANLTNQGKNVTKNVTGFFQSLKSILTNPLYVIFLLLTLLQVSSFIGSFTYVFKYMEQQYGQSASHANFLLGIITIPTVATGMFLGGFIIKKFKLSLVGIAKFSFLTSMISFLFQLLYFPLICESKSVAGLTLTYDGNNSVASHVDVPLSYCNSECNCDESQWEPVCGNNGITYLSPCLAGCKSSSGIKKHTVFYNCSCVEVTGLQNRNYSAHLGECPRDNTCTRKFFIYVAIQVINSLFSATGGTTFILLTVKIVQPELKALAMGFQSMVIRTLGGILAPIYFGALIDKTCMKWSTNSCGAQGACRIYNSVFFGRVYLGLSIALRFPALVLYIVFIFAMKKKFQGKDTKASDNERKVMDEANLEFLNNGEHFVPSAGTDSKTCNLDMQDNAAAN

[2] = biological target: T2, Solute carrier organic anion transporter family member 1B1 (Homo sapiens, UniProt Q9Y6L6); settings: chinese hamster, cho, 10 µM
T2 sequence (Q9Y6L6 whole entry): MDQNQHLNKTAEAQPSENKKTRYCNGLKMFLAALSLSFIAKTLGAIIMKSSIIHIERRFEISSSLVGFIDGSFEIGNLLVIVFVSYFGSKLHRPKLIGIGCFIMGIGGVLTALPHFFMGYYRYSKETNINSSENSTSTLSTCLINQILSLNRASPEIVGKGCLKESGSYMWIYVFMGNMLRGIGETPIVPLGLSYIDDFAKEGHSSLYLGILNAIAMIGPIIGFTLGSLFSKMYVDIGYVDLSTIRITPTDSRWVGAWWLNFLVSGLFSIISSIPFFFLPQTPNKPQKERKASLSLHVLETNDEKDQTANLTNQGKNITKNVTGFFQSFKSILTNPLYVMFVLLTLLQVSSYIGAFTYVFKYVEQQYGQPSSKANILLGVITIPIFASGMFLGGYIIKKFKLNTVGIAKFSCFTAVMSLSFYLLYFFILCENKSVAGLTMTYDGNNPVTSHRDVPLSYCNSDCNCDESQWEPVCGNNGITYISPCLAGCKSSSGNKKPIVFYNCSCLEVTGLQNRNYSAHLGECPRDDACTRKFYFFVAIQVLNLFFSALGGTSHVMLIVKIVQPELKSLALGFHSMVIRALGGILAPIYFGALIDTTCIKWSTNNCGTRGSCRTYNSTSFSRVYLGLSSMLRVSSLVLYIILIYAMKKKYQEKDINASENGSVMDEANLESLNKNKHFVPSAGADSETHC

SMILES	residual activity [1]	residual activity [2]
O=C1OC(c2ccc(O)cc2)(c2ccc(O)cc2)c2ccccc21 [PHENOLPHTHALEIN]	37.96%	20.62%
CCCSc1ccc2nc(NC(=O)OC)[nH]c2c1 [ALBENDAZOLE]	95.9%	102.7%
CCN(CC)CCOC(=O)C1(C2CCCCC2)CCCCC1.Cl [DICYCLOMINE HYDROCHLORIDE]	105.3%	106.9%
C=C1[C@@H]([C@@]2(C)C=CC(=O)C(C)(C)[C@@H]2CC(=O)OC)CC[C@@]2(C)[C@H](c3ccoc3)OC(=O)[C@H]3O[C@]132 [ANDIROBIN]	98.71%	103.8%
CN(C)CCc1c[nH]c2ccc(C[C@H]3COC(=O)N3)cc12 [ZOLMITRIPTAN]	102.5%	95.98%
O=C(OCc1ccccc1)c1ccccc1 [BENZYL BENZOATE]	74.09%	125.1%
C[C@H]1O[C@@H](O[C@H]2[C@@H](O)C[C@H](O[C@H]3[C@@H](O)C[C@H](O[C@H]4CC[C@@]5(C)[C@H](CC[C@@H]6[C@@H]5CC[C@]5(C)[C@@H](C7=CC(=O)OC7)CC[C@]65O)C4)O[C@@H]3C)O[C@@H]2C)C[C@H](O)[C@@H]1O [DIGITOXIN]	66.85%	56.48%
Cn1c(=O)c2c(ncn2CC(O)CO)n(C)c1=O (stereo not drawn) [DYPHYLLINE]	94.34%	92.75%
O=C(O)c1ccccc1OP(=O)(O)O [FOSFOSAL]	92.75%	68.68%
C[C@H](N)[C@H](O)c1ccccc1 [(1R,2S)-PHENYLPROPANOLAMINE]	87%	97.41%
C[C@H](CS)C(=O)N1CCC[C@H]1C(=O)O [CAPTOPRIL]	105.2%	167%
CN1CCN(C2=Nc3ccccc3Oc3ccc(Cl)cc32)CC1.O=C(O)CCC(=O)O [LOXAPINE SUCCINATE]	117.8%	140.7%
CC(C)(O)[C@@H]1Cc2cc3ccc(=O)oc3cc2O1 [MARMESIN]	103.9%	89.64%
NC[C@H]1O[C@H](O[C@H]2[C@H](O)[C@@H](O[C@H]3O[C@H](CO)[C@@H](O)[C@H](N)[C@H]3O)[C@H](N)C[C@@H]2N)[C@H](N)C[C@@H]1O [TOBRAMYCIN]	105.2%	197.1%
O=C(/C=C/c1ccccc1)c1ccc(O[C@@H]2O[C@H](CO)[C@@H](O)[C@H](O)[C@H]2O)cc1O [2',4'-DIHYDROXYCHALCONE 4'-GLUCOSIDE]	107.4%	99.51%
COP(=S)(OC)SCn1nnc2ccccc2c1=O [GUTHION]	101.8%	109.1%
NC(N)=O [UREA]	105.9%	87.46%
C[C@]12CCC(=O)C=C1CC[C@@H]1[C@@H]2[C@@H](O)C[C@@]2(C)[C@H]1CC[C@]2(O)C(=O)COC(=O)CCC(=O)O [HYDROCORTISONE HEMISUCCINATE ANHYDROUS]	101.8%	93.98%
COc1cc(OC)c2c(=O)c(-c3ccccc3)c(C)oc2c1OC [2-METHYL-5,7,8-TRIMETHOXYISOFLAVONE]	98.52%	115.1%
CCCCCCCC/C=C/CCCCCCCCOP(=O)([O-])OCC[N+](C)(C)C [ELAIDYLPHOSPHOCHOLINE]	84.98%	66.64%
C#CCCCCCCCCCCCC(O)CC(O)COC(C)=O (stereo not drawn) [AVOCADYNE ACETATE]	109.9%	144.6%
CCCN(CCC)S(=O)(=O)c1ccc(C(=O)O)cc1 [PROBENECID]	89.44%	81.99%

SMILES	residual activity [1]	residual activity [2]
CC1/C(=N/O)C[C@@H]2C[C@H]1C2(C)C (stereo partly drawn) [3-PINANONE OXIME]	123%	95.73%
CC(C)(C)NCC(O)c1cc(O)cc(O)c1.O=S(=O)(O)O (stereo not drawn)	94.09%	89.3%
COc1cc(OC)c2c(OC)c(-c3ccc4c(c3)OCO4)c(=O)oc2c1 [DERRUSNIN]	115.7%	141.7%
O=C([O-])P(=O)([O-])[O-].[Na+].[Na+].[Na+] [FOSCARNET SODIUM]	110.8%	113%
COc1ccc(-c2coc3c(OC)c(OC)cc(OC)c3c2=O)cc1 [ISOTECTORIGENIN TRIMETHYL ETHER]	118.2%	133.5%
CN1CCCN=C1/C=C/c1cccs1.O=C(O)c1cc2ccccc2c(Cc2c(O)c(C(=O)O)cc3ccccc23)c1O [PYRANTEL PAMOATE]	34.84%	31.41%
COc1ccccc1OCC(O)CN1CCN(CC(=O)Nc2c(C)cccc2C)CC1 (stereo not drawn) [RANOLAZINE]	83.1%	70.75%
CC(=O)N[C@@H](CC(=O)O)C(=O)O	103.6%	127.8163%
COc1cc([C@@H]2c3cc4c(cc3[C@@H](O[C@@H]3O[C@@H]5CO[C@@H](c6cccs6)O[C@H]5[C@H](O)[C@H]3O)[C@H]3COC(=O)[C@H]23)OCO4)cc(OC)c1O [TENIPOSIDE]	32.58%	25.44%
COc1ccc([C@H]2Oc3cc(OC)cc(OC)c3C[C@H]2O)cc1 [EPIAFZELECHIN TRIMETHYL ETHER]	113.6%	79.64%
CC[n+]1c(-c2ccccc2)c2cc(N)ccc2c2ccc(N)cc21.[Br-] [HOMIDIUM BROMIDE]	100.7%	98.94%
C[C@@H]1O[C@@H](O[C@H]2[C@H](Oc3cc(O)c4c(c3)O[C@H](c3ccc(O)cc3)CC4=O)O[C@H](CO)[C@@H](O)[C@@H]2O)[C@H](O)[C@H](O)[C@H]1O [NARINGIN]	137.8%	100.1%
CC(C)c1c(O)c(-c2cc3c(c(C(C)C)c2O)CC[C@H]2C(C)(C)CCC[C@]32C)cc2c1CC[C@H]1C(C)(C)CCC[C@]21C	91.38%	64.65%
CC(C)C[C@H](NC(=O)CN)C(=O)N[C@@H](Cc1ccccc1)C(=O)O (H-Gly-Leu-Phe-OH)	114.9%	118.4%
Cc1coc2ccccc2c1=O [METHYLCHROMONE]	92.21%	91.88%
CC1(C)O[C@@H]2C[C@H]3[C@@H]4CCC5=CC(=O)C=C[C@]5(C)[C@@]4(F)[C@@H](O)C[C@]3(C)[C@]2(C(=O)CO)O1 [TRIAMCINOLONE ACETONIDE]	115.5%	128.1%
COc1ccc(C(C)=O)c(OC)c1 [PEONOL METHYL ETHER]	99.54%	105.9%
OC[C@H]1O[C@@H](O[C@@H]2[C@@H](CO)O[C@](O)(CO)[C@H]2O)[C@H](O)[C@@H](O)[C@H]1O [LACTULOSE]	104.9%	90.31%
COc1cc2ccc(=O)oc2cc1O [SCOPOLETIN]	99.95%	87.31%
CC1CC[C@]2(OC1)OC1C[C@H]3[C@@H]4CC[C@H]5C[C@@H](O)CC[C@]5(C)C4=CC[C@]3(C)C1[C@@H]2C (stereo partly drawn)	108.3%	109.1%
c1ccc(-c2ccc(C(c3ccccc3)n3ccnc3)cc2)cc1 (stereo not drawn) [BIFONAZOLE]	115.7%	121.1%
CC[C@H]1OC(=O)[C@H](C)[C@@H](O[C@H]2C[C@@](C)(OC)[C@@H](O)[C@H](C)O2)[C@H](C)[C@@H](O[C@@H]2O[C@H](C)C[C@H](N(C)C)[C@H]2O)[C@](C)(O)C[C@@H](C)[C@@H]2N[C@@H](COCCOC)O[C@H]([C@H]2C)[C@]1(C)O [DIRITHROMYCIN]	95.43%	109.1%
